Assay results from US20100256086A1, “NON-HYDROLYZABLE NUCLEOSIDE DI- OR TRI-PHOSPHATE DERIVATIVES AND USES THEREOF” (priority 2007, published 2010).
“Also recorded” adds a separate entry of the source. Read-outs that look alike come from different tables or passages of the source. Each block holds one compound with its values, some of them ahead of it.

What was measured:
[1] = Glucose challenge in cannulated Wistar rats (insulin secretagogue efficacy); assay type: in vivo, rat; details: starved Wistar rats
Excerpt: The objective of this experiment is to study in vivo the efficacy of the compounds of the present invention as insulin secretion enhancing molecules, following a single oral gavage (per os) administration of glucose to cannulated Wister rats, by measuring the blood glucose and insulin levels following administration of the tested compound to the cannulated rats intra venues through the cannule.
A total of about 40 healthy 10-13 week old Wister rats are used. Animals are acclimatized for at least 4 days prior to commencement of treatment and are fed with non-medicated commercial sterile rodent food ad libitum. Drinking tap water are available ad libitum.
About 48 hours prior treatment, rats are weighted and a population uniform in weight (about 90% of the animals) is taken for cannulation. In particular, animals are anesthetized by 2.5% isofluran 97.5% dry air inhalation, and a P52 cannula is surgically inserted and fixed in the jugular vein and flushed with 0.3-0.5 ml 5% heparinized saline after cannulation (and thereafter, immediately after each blood collection). In case a technical problem such as fixation or clotting arises with a rat's indwelling cannula, another rat is cannulated and replace the previously allocated rat in the study.
On the day of treatment, the cannule of each one of the rats is checked, the rats are weighed, and the glucose level of each one of the rats is checked via the tail vain. […]
Glucose and insulin levels are measured 30 minutes prior to glucose administration (and prior to glibenclamide administration in the case of the positive control group); immediately before and 5 minutes after glucose administration; 15 minutes after glucose administration, namely, 5 minutes after administration of the tested compound or saline (in the cases of the first and the negative control groups, respectively); and then 30, 45, 60 120 and 150 minutes after glucose administration. […]

[2] = target: T1, calf intestine alkaline phosphatase (Bos taurus, UniProt P19111); assay: Enzymatic stability to alkaline phosphatase; assay type: in vitro ADME; details: 37° C., as in Example 6
T1 construct: purchased Fermentas Inc., Glen Burnie, Md
Protocol: Enzyme activity was measured by the release of p-nitrophenol from the nucleotide derivatives using a UV-vis spectrophotometer at 405 nm. Relative activity and resistance of nucleotides to enzymatic hydrolysis were determined at 37° C. Briefly, 32.5 μl of nucleotide derivative (77 μg/ml in 0.1 M Tris-HCl and 0.1 M MgCl2, pH 7.5) and 6 μl of deionized water were incubated with calf intestine alkaline phosphatase (Fermentas Inc., Glen Burnie, Md., 1 unit/μl, 6.25 μl at 37° C. final pH=9.8). After 30 min, the reaction was stopped by incubation at 80° C. for 30 min. The stability of the nucleotide derivative was evaluated by HPLC to monitor possible dephosphorylation products. The mixture was separated on a Gemini analytic column (5u C-18 110A, 150×4.60 mm) using gradient elution with Solvent System I (see Example 1) at 90:10 to 70:30 A:B for 3A and 3B, and 82:18 to 50:50 for 4A, 4B and 2 over 20 min and at a flow rate of 1 ml/min.

rP2Y1R = target: T2, rP2Y1R (Rattus norvegicus, UniProt P49651); details: HEK293 cells expressing rP2Y1R, Ca2+ mobilization; cited from earlier work
T2 construct: host or cells: HEK293 cells

[3] = Chemical stability at pH 1.4 and 37° C. evaluated by HPLC; assay type: physicochemical; details: pH 1.4, 37° C., after 19 h
Protocol: The stability of 3 (isomer B) in the appropriate buffer solution (0.2 M HCl/KCl, pH=1.4) at 37° C. was evaluated by HPLC-electrospray ionization (ESI)MS for 5 days at 7-17 h intervals, and its hydrolysis rate, based on the HPLC integration changes of the 3B peak with time, was fit to a pseudo first-order exponential decay rate equation, as shown in FIGS. 2A-2B. In addition to 3B, degradation products 6, 7 and 8 were identified in the hydrolysis mixture, as depicted in Scheme 3. For instance, after 19 h, 50% of 3B was degraded giving rise to 37% of AMP-α-B and AMP-α-H (6 and 7, respectively. Both appear at the same retention time; however, MS enabled the identification of these compounds) and 13% adenosine (FIG. 2A). […]
The stability of 4 (isomer B) in the appropriate buffer solution (pH=1.4) at 37° C. was evaluated by HPLC to monitor possible dephosphorylation products. […] The solution was kept in an oil bath at 37° C. and its composition was analyzed by HPLC-MS, using a Gemini analytic column (5u C-18 110A, 150×4.60 mm) and gradient elution with Solvent System I (see Example 1) at 89:11 A:B for 15 min and then 82:18 to 74:26 A:B for 20 min at a flow rate of 1 ml/min. […] The hydrolysis rate of 4 was determined by measuring the change in the integration of the HPLC peaks of the degradation products, 6, 7 and 8, with time.

[4] = Stability in human blood serum, Method A; assay type: in vitro ADME; details: human blood serum and RPMI-1640, 37° C.
Protocol: Preparation of the Human Blood Serum: Blood Taken from Healthy Volunteers was obtained from a blood bank (Tel-Hashomer hospital, Israel), stored for 12 h at 4° C. and centrifuged in plastic tubes at 1500 g for 15 min at room temperature. The serum was separated and stored at −80° C.
The assay mixture, containing a 40 mM nucleotide derivative solution in deionized water (4.5 μl), human blood serum (180 μl) and RPMI-1640 (540 μl), was incubated at 37° C. for 1, 4, 8, 16, 24, 48, 72 and 96 h. The samples were then treated with 0.6 M of hydrochloric acid (430 μl), centrifuged for 2 min (13,000 g, 4° C.), neutralized by addition of 4 M of KOH, centrifuged for 2 min (13,000 g, 4° C.) and freeze-dried. The stability of the nucleotide was evaluated by HPLC for monitoring possible dephosphorylation products. The mixture was separated on a Gemini analytic column (5u C-18 110A, 150×4.60 mm) with gradient elution [0.01 M KH2PO4 pH=4.5 (A)/acetonitrile (B), 100:0→60:40, A:B, 20 min for 2, 3A and 3B; 100:0→95:5, A:B, 10 min for ATP] and flow rate of 1 ml/min. The hydrolysis rate was determined by measuring the change in the integration of the respective HPLC peaks with time.

turkey P2Y1 = target: T3, turkey P2Y1 (Meleagris gallopavo, UniProt P49652); assay: Intracellular calcium measurement ([Ca2+]i, fura-2) in 1321N1 astrocytoma cells; assay type: cell-based
T3 construct: expressed in transfected cells
Protocol: Human 1321N1 astrocytoma cells stably expressing the turkey P2Y1, human P2Y2, human P2Y4 or rat P2Y6 were grown in Dulbecco's modified Eagle's medium containing 5% (v/v) fetal bovine serum, 100 units/ml penicillin, 100 μg/ml streptomycin and 500 μg/ml Geneticin (G-418, Life Technologies, Inc). Changes in the intracellular free calcium concentration, [Ca^2+]i were detected by dual-excitation spectrofluorometric analysis of cell suspensions loaded with fura-2, as previously described (Garrad et al., 1998; Grynkiewicz et al., 1985). Cells were assayed in 10 mM Hepes-buffered saline (pH 7.4) containing 1 mM CaCl2 and 1 mM MgCl2. The cells were pelleted in a microfuge and resuspended in 2 ml of buffer. Concentration-response data were analyzed with the Prism curve fitting program (GraphPAD Software, San Diego, Calif.). Three experiments were conducted on separate days for each P2Y receptor subtype.
The activities of compounds 2, 4B, 17, 18, 19A, 21 (isomers A and B) were examined at the G protein-coupled P2YRs, P2Y1, P2Y2, P2Y4 and P2Y6 expressed in human 1321N1 astrocytoma cells, based on intracellular calcium measurements, as described in Experimental above. In particular, the activity of compound 2, 4B and 19 was examined at P2Y1R, P2Y2R, P2Y4R and P2Y6R, and the activity of compounds 17, 18 and 21 was examined at P2Y1R only. The experiments were conducted by Prof. Gary A. Weisman from Columbia-Missouri University, Columbia, Mo., USA.

T3 sequence (P49652 whole entry): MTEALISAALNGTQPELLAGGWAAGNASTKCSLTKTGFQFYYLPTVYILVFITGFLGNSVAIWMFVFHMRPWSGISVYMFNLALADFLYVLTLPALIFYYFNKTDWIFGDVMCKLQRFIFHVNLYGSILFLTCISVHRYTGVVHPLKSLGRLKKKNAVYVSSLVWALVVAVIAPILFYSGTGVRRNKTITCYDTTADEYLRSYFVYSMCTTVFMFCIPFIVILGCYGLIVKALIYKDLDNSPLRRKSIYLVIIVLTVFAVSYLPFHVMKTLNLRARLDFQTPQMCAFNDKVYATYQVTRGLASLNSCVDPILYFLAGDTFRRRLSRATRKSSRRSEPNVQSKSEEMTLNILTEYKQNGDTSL
T2 sequence (P49651 whole entry): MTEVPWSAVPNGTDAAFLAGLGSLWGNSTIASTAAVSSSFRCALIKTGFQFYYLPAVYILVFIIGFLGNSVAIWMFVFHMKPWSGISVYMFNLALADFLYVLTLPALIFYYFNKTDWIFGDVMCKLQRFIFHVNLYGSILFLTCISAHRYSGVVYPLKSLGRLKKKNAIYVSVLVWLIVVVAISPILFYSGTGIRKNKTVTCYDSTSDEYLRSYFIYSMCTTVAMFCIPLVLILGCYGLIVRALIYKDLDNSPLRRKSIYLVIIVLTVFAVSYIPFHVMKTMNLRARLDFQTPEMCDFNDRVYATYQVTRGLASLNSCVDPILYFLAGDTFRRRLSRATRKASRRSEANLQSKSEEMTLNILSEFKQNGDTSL
T1 sequence (P19111 20-506): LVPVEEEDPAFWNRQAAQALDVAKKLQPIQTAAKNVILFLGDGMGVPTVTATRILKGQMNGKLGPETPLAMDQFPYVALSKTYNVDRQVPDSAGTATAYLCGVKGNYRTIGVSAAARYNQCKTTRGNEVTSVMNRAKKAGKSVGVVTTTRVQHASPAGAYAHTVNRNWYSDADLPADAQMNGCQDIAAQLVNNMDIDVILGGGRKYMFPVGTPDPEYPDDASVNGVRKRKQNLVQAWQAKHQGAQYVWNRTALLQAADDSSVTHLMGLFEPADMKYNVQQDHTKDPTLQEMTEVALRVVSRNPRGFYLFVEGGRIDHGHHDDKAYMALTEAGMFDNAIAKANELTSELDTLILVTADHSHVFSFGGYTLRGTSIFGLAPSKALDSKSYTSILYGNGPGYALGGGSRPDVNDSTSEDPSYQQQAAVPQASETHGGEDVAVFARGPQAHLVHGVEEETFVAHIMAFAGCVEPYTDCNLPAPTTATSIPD

Structure (SMILES): COc1ccc(Cl)cc1C(=O)NCCc1ccc(S(=O)(=O)NC(=O)NC2CCCCC2)cc1 [glibenclamide, reference compound]
- glucose levels after glucose challenge relative to saline treated rats ([1]; 0.25 mg/kg per os 30 minutes prior to glucose, positive control): reduced the glucose levels

Structure (SMILES): [BH3-]P(=O)(OC[C@H]1O[C@@H](n2cnc3c(N)nc(SC)nc32)[C@H](O)[C@@H]1O)OP(=O)([O-])[O-].[Na+].[Na+].[Na+] (stereo partly drawn) [Compound 19, 2MeS-adenosine-5′-O-(Pα-borano) diphosphate]
- glucose levels after glucose challenge relative to saline treated rats ([1]; 2.5 mg/kg IV 10 minutes after glucose challenge, preliminary study): reduced the glucose levels; also recorded: reduces glycemia

- half-life in human blood serum: about 2 h
- t1/2 to alkaline phosphatase [2]: about 4 h
Structure (SMILES): Nc1ncnc2c1ncn2[C@@H]1O[C@H](COP(=O)(O)OP(=O)(O)O)[C@@H](O)[C@H]1O [ADP, reference compound]

Structure (SMILES): CSc1nc(N)c2ncn([C@@H]3O[C@H](COP(=O)(O)OP(=O)(O)OP(=O)(O)O)[C@@H](O)[C@H]3O)c2n1 [Compound 2-MeS-ATP, 2-MeS-ATP]
- EC50 (rP2Y1R): 1 nM

Structure (SMILES): B[P@](=O)(OC[C@H]1O[C@@H](n2cnc3c(N)ncnc32)[C@H](O)[C@@H]1O)OP(=O)(O)CP(=O)(O)O (single isomer, unassigned) [Compound 3B, Adenosine-β,γ-CH2-5′-O-(1-boranotriphosphate)]
- fraction degraded [3]: 50%
- half-life in human blood serum [4]: 47.1 h
- activity at P2Y1R, in words (turkey P2Y1): practically inactive
- activities at the P2YRs tested (turkey P2Y1; P2Y1, P2Y2, P2Y4 and P2Y6 tested): insignificant activities
